According to patent US20260364184A1, “COMPOUND BASED ON OXOISOINDOLINYL-SUBSTITUTED TETRAHYDROPYRIMIDINE-DIONE AND USE THEREOF” (GLUETACS THERAPEUTICS (SHANGHAI) CO., LTD., priority 2023, published 2026):

Assays:
WEE1 = molecular target: T1, WEE1 (Homo sapiens, UniProt P30291+Q96SW2); assay: Western blot degradation of WEE1; format: cell-based; details: hPBMC Cell; 24 hours
T1 construct: expression of target proteins in cells; endogenous in cells
Method: (§1) Conventional Western blot assay was performed to evaluate the effects of the compounds of the present disclosure on the expression of target proteins in cells.
(§2) (1) Cell Seeding and Protein Harvesting: The selected cells were processed according to the cell seeding procedure and protein harvesting procedure in Table II-2.
(§3) (2) To the collected supernatant, 5×SDS sample loading buffer was added, followed by denaturation at 95 °C for 5 minutes. The denatured samples were then separated by SDS-PAGE electrophoresis on a polyacrylamide gel. Proteins were transferred to a nitrocellulose membrane (0.45 μm NC membrane), blocked with blocking buffer at room temperature for 1 hour, and subjected to antibody incubation and development procedures according to the antibody manufacturer's instructions (Cell Signaling Technology).
(§4) Half-Maximal Degradation Concentration value (the drug concentration required for degrading proteins by 50%, abbreviated as DC50) reads method: comparing the grayscale values of Western blot bands from drug-treated samples with those from blank DMSO-treated controls, and identifying the drug concentration range at which the grayscale value is half that of the DMSO-treated control bands.
(§5) DC50 values can be calculated using ImageJ software to measure grayscale values of Western blot bands from drug-treated samples. The concentration-response curve is fitted to estimate the drug concentration corresponding to half the grayscale value.
(§6) Target protein remaining (%) refers to the percentage of target protein remaining in cells after treatment with protein degrader compounds.
(§7) Calculation method for target protein remaining (%): Use ImageJ software to measure grayscale values of Western blot bands from drug (protein degrader)-treated samples. The grayscale value of drug-treated bands is divided by that of internal control protein bands, and the resulting quotient is normalized to obtain the relative percentage of remaining target protein after protein degrader treatment.
(§8) Target protein degradation rate (%)=1−target protein remaining (%).

IKZF1 = molecular target: T2, IKZF1 (Homo sapiens, UniProt Q13422+Q96SW2); assay: Western blot degradation of IKZF1; format: cell-based; details: hPBMC Cell; 24 hours
T2 construct: expression of target proteins in cells; endogenous in cells
Method: as §1, §2, §3, §4, §5, §6, §7, §8

IKZF2 = molecular target: T3, IKZF2 (Homo sapiens, UniProt Q96SW2+Q9UKS7); assay: Western blot degradation of IKZF2; format: cell-based; details: hPBMC Cell; 24 hours
T3 construct: expression of target proteins in cells; endogenous in cells
Method: as §1, §2, §3, §4, §5, §6, §7, §8

IKZF3 = molecular target: T4, IKZF3 (Homo sapiens, UniProt Q96SW2+Q9UKT9); assay: Western blot degradation of IKZF3; format: cell-based; details: hPBMC Cell; 24 hours
T4 construct: expression of target proteins in cells; endogenous in cells
Method: as §1, §2, §3, §4, §5, §6, §7, §8

CK1α = molecular target: T5, CK1α (Homo sapiens, UniProt P48729+Q96SW2); assay: Western blot degradation of CK1α; format: cell-based; details: hPBMC Cell; 24 hours
T5 construct: expression of target proteins in cells; endogenous in cells
Method: as §1, §2, §3, §4, §5, §6, §7, §8

GSPT1 = molecular target: T6, GSPT1 (Homo sapiens, UniProt P15170+Q96SW2); assay: Western blot degradation of GSPT1; format: cell-based; details: hPBMC Cell; 24 hours
T6 construct: expression of target proteins in cells; endogenous in cells
Method: as §1, §2, §3, §4, §5, §6, §7, §8

[1] = system: Human non-small cell lung cancer cell line NCI-H1975; assay: Inhibition of H1975 cell proliferation (CellTiter luminescent viability); format: cell-based; details: Table ID1, EGFR inhibitor-based; H1975, 96 hours; read-out: Inhibitory activity (IC50, nM) on tumor cell proliferation, H1975
Method: The tumor cells used herein were cultured in a cell culture medium listed in table 3 at 37 °C in an incubator with 5% CO2. Prior to experimentation, all cell lines used were correctly identified by STR profiling, and tested negative for mycoplasma contamination using a mycoplasma detection kit through routine screenings.
The IC50 values of the compounds of the present disclosure (including the compounds in Table 1, Table 2, and Examples 1-468) were determined using the CellTiter-Meiluncell Luminescent Cell Viability Assay Kit from Dalian Meilun Biotech Co., Ltd. The detailed procedure is as follows: Tumor cells were seeded in 96-well cell culture plates at the densities specified in Table 4. On the following day, the test compounds of the present disclosure were subjected to serial dilution. The dilution can be performed according to one of the following two methods: • (1) The first dilution method: The test compounds of the present disclosure (including the compounds in Table 1, Table 2, and Examples 1-468) were subjected to 5-fold serial dilutions starting from a highest concentration of 2000 μM, resulting in a total of 9 concentrations from high to low (2000, 400, 80, 16, 3.2, 0.64, 0.128, 0.0256, 0.00512 μM). Subsequently, 0.5 μL of the test compound dilution was transferred into the 96-well plate containing the cells, with each well containing 100 μL of cell culture medium. […] Into the 96-well plate, the diluted test compounds and corresponding detection reagents were added, resulting in final test compound concentrations of 500 nM and 10 nM, respectively. The experimental procedure is described below using the diluted 2 μM test compound as an example.
0.5 μL of the aforementioned diluted compound of the present disclosure (including the compounds in Table 1, Table 2, and Examples 1-468) was added to the seeded cells in 100 μL of medium, yielding a final test compound concentration of 10 nM. After the cells were treated with the compounds of the present disclosure for a specified period, the cell viability assay reagent was added to the culture medium according to the kit's instructions to determine cell viability. […] All controls were treated using the same procedure as the compounds of the present disclosure. The growth inhibition curves for the compounds of the present disclosure were plotted using Prism GraphPad software, and the IC50 values were calculated therefrom.

EGFR = molecular target: T7, EGFR (Homo sapiens, UniProt P00533); assay: Western blot degradation of EGFR; format: cell-based; details: H1975 Cell; 24 hours
T7 construct: L858R/T790M in cis, heterozygous with wild type), Western blot
Procedure, shortened: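 Compound-treated cells harvested; lysates denatured 5 min at 95 °C, run on SDS-PAGE, blotted to NC membrane, blocked 1 h RT, probed with antibodies. Densitometry vs DMSO → DC50; target normalised to internal control → % remaining, degradation = 1 − remaining.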

[2] = molecular target: T8, human Cereblon WT GST-tagged protein (CRBN) (Homo sapiens, UniProt Q96SW2); assay: CRBN binding by HTRF (Cereblon binding kit)
T8 construct: purchased CISBIO 64BDCRBNPEH
Procedure, shortened: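 GST-tagged human Cereblon WT was incubated 3 h at room temperature with compound, thalidomide-Re tracer and Eu anti-GST antibody. Final compound concentrations were 10 to 0.00064 µM (7 points) or 2 and 0.5 µM. Inhibition rate was calculated from HTRF 665/620 nm ratios versus solvent and blank controls.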

T3 sequence (Q9UKS7 whole entry): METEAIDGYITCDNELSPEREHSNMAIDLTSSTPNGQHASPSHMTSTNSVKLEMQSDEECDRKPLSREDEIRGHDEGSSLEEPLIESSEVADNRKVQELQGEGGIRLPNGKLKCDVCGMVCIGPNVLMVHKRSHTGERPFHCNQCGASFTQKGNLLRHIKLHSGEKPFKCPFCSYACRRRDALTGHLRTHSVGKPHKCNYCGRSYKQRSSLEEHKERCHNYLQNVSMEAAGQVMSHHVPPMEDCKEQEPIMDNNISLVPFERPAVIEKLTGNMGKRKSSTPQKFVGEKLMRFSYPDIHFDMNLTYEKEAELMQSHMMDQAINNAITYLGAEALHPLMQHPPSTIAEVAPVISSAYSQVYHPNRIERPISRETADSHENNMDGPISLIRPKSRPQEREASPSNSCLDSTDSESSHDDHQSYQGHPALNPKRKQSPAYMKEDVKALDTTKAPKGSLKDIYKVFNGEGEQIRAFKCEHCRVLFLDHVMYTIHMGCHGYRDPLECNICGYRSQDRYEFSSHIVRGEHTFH
T3 sequence (Q96SW2 whole entry): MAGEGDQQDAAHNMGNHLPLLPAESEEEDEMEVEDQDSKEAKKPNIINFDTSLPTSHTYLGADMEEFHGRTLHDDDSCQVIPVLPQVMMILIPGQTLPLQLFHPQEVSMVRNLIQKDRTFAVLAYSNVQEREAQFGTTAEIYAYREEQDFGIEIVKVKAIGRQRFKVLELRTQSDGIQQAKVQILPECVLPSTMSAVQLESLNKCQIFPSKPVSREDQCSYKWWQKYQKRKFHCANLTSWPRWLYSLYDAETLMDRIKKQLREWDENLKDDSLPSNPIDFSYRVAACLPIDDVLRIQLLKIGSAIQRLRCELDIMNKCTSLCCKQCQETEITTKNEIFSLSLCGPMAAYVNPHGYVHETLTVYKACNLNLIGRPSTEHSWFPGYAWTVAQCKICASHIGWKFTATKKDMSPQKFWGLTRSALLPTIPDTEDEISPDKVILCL
T3 sequence (Q16531 whole entry partner): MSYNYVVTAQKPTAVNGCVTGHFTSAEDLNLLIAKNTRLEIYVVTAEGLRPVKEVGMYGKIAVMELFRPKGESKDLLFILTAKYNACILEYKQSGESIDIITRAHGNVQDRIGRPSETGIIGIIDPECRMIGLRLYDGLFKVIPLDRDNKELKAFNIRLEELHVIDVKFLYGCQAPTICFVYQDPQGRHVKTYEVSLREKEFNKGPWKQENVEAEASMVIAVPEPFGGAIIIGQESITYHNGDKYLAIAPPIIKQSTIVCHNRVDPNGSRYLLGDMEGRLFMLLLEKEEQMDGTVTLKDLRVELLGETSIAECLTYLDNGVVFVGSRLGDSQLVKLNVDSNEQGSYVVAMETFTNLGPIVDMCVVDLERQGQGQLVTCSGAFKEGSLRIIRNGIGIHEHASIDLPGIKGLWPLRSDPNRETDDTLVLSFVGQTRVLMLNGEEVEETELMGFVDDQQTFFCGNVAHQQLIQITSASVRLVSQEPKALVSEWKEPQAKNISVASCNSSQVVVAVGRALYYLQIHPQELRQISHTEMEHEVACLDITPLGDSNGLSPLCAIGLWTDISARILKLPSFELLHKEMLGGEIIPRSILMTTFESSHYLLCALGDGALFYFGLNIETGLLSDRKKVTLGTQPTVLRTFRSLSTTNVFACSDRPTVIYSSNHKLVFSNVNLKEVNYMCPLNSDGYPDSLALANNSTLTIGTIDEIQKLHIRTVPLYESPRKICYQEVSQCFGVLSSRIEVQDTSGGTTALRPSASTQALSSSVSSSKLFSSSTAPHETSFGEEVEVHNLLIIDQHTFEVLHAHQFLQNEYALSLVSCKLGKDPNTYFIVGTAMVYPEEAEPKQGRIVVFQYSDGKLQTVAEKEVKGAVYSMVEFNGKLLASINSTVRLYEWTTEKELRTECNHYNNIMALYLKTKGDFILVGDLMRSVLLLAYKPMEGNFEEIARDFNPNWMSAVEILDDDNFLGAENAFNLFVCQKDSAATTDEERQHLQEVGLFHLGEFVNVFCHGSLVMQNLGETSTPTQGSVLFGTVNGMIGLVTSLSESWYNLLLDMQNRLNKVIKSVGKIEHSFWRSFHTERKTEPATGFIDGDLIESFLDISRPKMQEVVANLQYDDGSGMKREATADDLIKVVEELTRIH
T5 sequence (P48729 whole entry): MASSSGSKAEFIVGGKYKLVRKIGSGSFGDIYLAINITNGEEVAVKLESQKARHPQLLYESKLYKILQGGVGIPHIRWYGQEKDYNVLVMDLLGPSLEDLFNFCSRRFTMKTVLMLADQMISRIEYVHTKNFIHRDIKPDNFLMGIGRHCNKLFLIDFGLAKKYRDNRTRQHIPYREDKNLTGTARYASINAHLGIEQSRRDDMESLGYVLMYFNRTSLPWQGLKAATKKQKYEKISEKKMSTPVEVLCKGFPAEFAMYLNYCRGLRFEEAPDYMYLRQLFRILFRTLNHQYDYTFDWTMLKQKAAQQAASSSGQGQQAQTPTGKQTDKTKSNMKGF
T5 sequence (Q96SW2 whole entry): as the sequence (Q96SW2 whole entry) above
T5 sequence (Q16531 whole entry partner): as the sequence (Q16531 whole entry partner) above
T1 sequence (P30291 whole entry): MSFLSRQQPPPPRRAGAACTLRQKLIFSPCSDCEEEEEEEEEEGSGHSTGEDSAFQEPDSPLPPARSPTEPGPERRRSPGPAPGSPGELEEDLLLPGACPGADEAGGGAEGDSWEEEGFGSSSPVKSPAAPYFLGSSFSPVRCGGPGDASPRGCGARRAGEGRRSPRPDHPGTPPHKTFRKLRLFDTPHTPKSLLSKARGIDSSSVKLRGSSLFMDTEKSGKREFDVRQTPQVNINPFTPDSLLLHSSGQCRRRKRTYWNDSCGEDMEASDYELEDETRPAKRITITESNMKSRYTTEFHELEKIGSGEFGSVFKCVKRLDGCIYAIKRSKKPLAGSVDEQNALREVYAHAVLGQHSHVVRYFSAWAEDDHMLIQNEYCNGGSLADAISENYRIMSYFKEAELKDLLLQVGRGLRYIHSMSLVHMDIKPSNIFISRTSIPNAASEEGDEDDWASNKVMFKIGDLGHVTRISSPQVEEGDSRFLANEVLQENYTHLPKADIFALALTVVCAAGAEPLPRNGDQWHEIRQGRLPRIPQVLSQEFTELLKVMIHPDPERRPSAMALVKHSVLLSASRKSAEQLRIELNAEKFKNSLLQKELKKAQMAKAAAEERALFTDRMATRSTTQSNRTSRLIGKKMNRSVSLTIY
T1 sequence (Q96SW2 whole entry): as the sequence (Q96SW2 whole entry) above
T1 sequence (Q16531 whole entry partner): as the sequence (Q16531 whole entry partner) above
T2 sequence (Q13422 whole entry): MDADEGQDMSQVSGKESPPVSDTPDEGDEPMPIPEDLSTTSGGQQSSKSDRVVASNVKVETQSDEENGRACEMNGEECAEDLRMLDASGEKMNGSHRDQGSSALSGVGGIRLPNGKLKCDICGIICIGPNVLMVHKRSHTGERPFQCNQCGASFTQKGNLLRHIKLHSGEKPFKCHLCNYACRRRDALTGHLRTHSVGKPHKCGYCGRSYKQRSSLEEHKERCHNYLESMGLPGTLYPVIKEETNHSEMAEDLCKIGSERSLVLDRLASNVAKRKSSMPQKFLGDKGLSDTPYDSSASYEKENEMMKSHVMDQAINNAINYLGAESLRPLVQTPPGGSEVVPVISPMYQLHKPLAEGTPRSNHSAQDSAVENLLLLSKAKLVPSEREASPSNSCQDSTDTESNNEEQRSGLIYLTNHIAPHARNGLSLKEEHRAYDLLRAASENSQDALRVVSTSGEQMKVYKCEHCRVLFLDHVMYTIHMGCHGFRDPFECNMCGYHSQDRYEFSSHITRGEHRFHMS
T2 sequence (Q96SW2 whole entry): as the sequence (Q96SW2 whole entry) above
T2 sequence (Q16531 whole entry partner): as the sequence (Q16531 whole entry partner) above
T6 sequence (P15170 whole entry): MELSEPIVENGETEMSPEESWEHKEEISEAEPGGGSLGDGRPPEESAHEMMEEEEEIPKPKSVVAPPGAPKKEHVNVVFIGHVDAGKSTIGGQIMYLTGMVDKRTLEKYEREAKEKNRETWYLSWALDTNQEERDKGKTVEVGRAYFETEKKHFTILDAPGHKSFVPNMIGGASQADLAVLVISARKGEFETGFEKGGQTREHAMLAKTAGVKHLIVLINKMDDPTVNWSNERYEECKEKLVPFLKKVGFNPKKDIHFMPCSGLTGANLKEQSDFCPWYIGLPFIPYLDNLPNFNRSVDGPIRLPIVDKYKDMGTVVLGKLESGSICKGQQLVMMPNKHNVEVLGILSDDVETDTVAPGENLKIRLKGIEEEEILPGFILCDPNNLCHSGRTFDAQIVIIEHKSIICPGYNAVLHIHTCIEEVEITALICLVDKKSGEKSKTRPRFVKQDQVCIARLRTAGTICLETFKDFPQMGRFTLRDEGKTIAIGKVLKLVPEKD
T6 sequence (Q96SW2 whole entry): as the sequence (Q96SW2 whole entry) above
T6 sequence (Q16531 whole entry partner): as the sequence (Q16531 whole entry partner) above
T8 sequence (Q96SW2 whole entry): as the sequence (Q96SW2 whole entry) above

Degradation of substrate protein IKZF3 (substrate protein remaining %) (IKZF3) | IC50 [1] [nM] | Degradation of substrate protein EGFR (substrate protein remaining %) (EGFR) | Inhibition Rate at 0.5 μM (%) ([2]; 0.5 μM) | Inhibition Rate at 2 μM (%) ([2]; 2 μM) | SMILES | Degradation of substrate protein WEE1 (substrate protein remaining %) (WEE1) | Degradation of substrate protein IKZF1 (substrate protein remaining %) (IKZF1) | Degradation of substrate protein IKZF2 (substrate protein remaining %) (IKZF2) | Degradation of substrate protein CK1α (substrate protein remaining %) (CK1α) | Degradation of substrate protein GSPT1 (substrate protein remaining %) (GSPT1)
A (0%≤substrate protein remaining %≤80%) | – | – | – | – | NCc1ccc2c(c1)C(=O)N(N1CCC(=O)NC1=O)C2=O [GT-07968, 5-(aminomethyl)-2-(2,4-dioxotetrahydropyrimidin-1(2H)-yl)isoindoline-1,3-dione] | A (0%≤substrate protein remaining %≤80%) | A (0%≤substrate protein remaining %≤80%) | A (0%≤substrate protein remaining %≤80%) | A (0%≤substrate protein remaining %≤80%) | B (80%<substrate protein remaining %≤100%)
A (0%≤substrate protein remaining %≤80%) | – | – | – | – | O=CC1CCN(c2cccc3c2C(=O)N(N2CCC(=O)NC2=O)C3=O)CC1 [GT-05590, 1-(2-(2,4-dioxotetrahydropyrimidin-1(2H)-yl)-1,3-dioxoisoindolin-4-yl)piperidine-4-carbaldehyde] | B (80%<substrate protein remaining %≤100%) | B (80%<substrate protein remaining %≤100%) | B (80%<substrate protein remaining %≤100%) | B (80%<substrate protein remaining %≤100%) | B (80%<substrate protein remaining %≤100%)
A (0%≤substrate protein remaining %≤80%) | – | – | – | – | O=C1CCN(N2C(=O)c3ccc(N4CC5CCC(C4)N5)cc3C2=O)C(=O)N1 [GT-05589, 5-(3,8-diazabicyclo[3.2.1]octan-3-yl)-2-(2,4-dioxotetrahydropyrimidin-1(2H)-yl)isoindoline-1,3-dione] | B (80%<substrate protein remaining %≤100%) | B (80%<substrate protein remaining %≤100%) | B (80%<substrate protein remaining %≤100%) | B (80%<substrate protein remaining %≤100%) | B (80%<substrate protein remaining %≤100%)
A (0%≤substrate protein remaining %≤80%) | – | – | – | – | O=C1CCN(N2C(=O)c3cccc(N4CCNCC4)c3C2=O)C(=O)N1 [GT-05591, 2-(2,4-dioxotetrahydropyrimidin-1(2H)-yl)-4-(piperazin-1-yl)isoindoline-1,3-dione] | B (80%<substrate protein remaining %≤100%) | B (80%<substrate protein remaining %≤100%) | B (80%<substrate protein remaining %≤100%) | B (80%<substrate protein remaining %≤100%) | B (80%<substrate protein remaining %≤100%)
A (0%≤substrate protein remaining %≤80%) | – | – | – | – | O=C1CCN(N2C(=O)c3ccc(N4CCNCC4)cc3C2=O)C(=O)N1 [GT-05581, 2-(2,4-dioxotetrahydropyrimidin-1(2H)-yl)-5-(piperazin-1-yl)isoindoline-1,3-dione] | A (0%≤substrate protein remaining %≤80%) | B (80%<substrate protein remaining %≤100%) | B (80%<substrate protein remaining %≤100%) | A (0%≤substrate protein remaining %≤80%) | A (0%≤substrate protein remaining %≤80%)
A (0%≤substrate protein remaining %≤80%) | – | – | – | – | O=C1CCN(N2Cc3c(O)cccc3C2=O)C(=O)N1 [GT-05570, 1-(4-hydroxy-1-oxoisoindolin-2-yl)dihydropyrimidine-2,4(1H, 3H)-dione] | A (0%≤substrate protein remaining %≤80%) | A (0%≤substrate protein remaining %≤80%) | A (0%≤substrate protein remaining %≤80%) | A (0%≤substrate protein remaining %≤80%) | A (0%≤substrate protein remaining %≤80%)
– | 10 to 50 | A (0%≤substrate protein remaining %≤80%) | a1 (10% < a1 ≤ 20%) | a5 (53% < a5 ≤ 60%) | O=C1CCN(N2Cc3cc(CN4CCN(C5CCN(c6ccc(-c7cc(F)c8c(c7)C(=O)N(C(C(=O)Nc7nccs7)c7ncn9c7CCC9)C8)cc6)CC5)CC4)ccc3C2=O)C(=O)N1 (stereo not shown) [GT-06241, 2-(6,7-dihydro-5H-pyrrolo[1,2-c]imidazol-1-yl)-2-(6-(4-(4-(4-((2-(2,4-dioxotetrahydropyrimidin-1(2H)-yl)-1-oxoisoindolin-5-yl)methyl)piperazin-1-yl)piperidin-1-yl)phenyl)-4-fluoro-1-oxoisoindolin-2-yl)-N-(thiazol-2-yl)acetamide] | – | – | – | – | –

SMILES | Degradation of substrate protein IKZF3 (substrate protein remaining %) (IKZF3) | IC50 [1] [nM] | Degradation of substrate protein EGFR (substrate protein remaining %) (EGFR) | Inhibition Rate at 0.5 μM (%) ([2]; 0.5 μM) | Inhibition Rate at 2 μM (%) ([2]; 2 μM) | Degradation of substrate protein WEE1 (substrate protein remaining %) (WEE1) | Degradation of substrate protein IKZF1 (substrate protein remaining %) (IKZF1) | Degradation of substrate protein IKZF2 (substrate protein remaining %) (IKZF2) | Degradation of substrate protein CK1α (substrate protein remaining %) (CK1α) | Degradation of substrate protein GSPT1 (substrate protein remaining %) (GSPT1)
O=C1CCN(N2C(=O)c3cc(N4CCNCC4)cc(F)c3C2=O)C(=O)N1 [GT-05593, 2-(2,4-dioxotetrahydropyrimidin-1(2H)-yl)-4-fluoro-6-(piperazin-1-yl)isoindoline-1,3-dione] | B (80%<substrate protein remaining %≤100%) | – | – | – | – | B (80%<substrate protein remaining %≤100%) | B (80%<substrate protein remaining %≤100%) | A (0%≤substrate protein remaining %≤80%) | B (80%<substrate protein remaining %≤100%) | A (0%≤substrate protein remaining %≤80%)
